This note sets out measurements from ChEMBL document CHEMBL2146439, “Synthesis and pharmacological evaluation of a novel series of 3-aryl-2-(2-substituted-4-methylthiazole-5-yl)thiazolidin-4-one as possible anti-inflammatory and antimicrobial agents” (2012).

Common to all, as to format: functional
The test system of assay [1] is Rattus norvegicus. Kind of assay: Antiinflammatory activity in Wistar albino rat assessed as inhibition of carrageenan-induced paw edema at 40 mg/kg, po administered 1 hr prior to carrageenan challenge measured 1 hr post carrageenan challenge relative to control.
Assay [2] has as its system Rattus norvegicus. Description: Antiinflammatory activity in Wistar albino rat assessed as inhibition of carrageenan-induced paw edema at 40 mg/kg, po administered 1 hr prior to carrageenan challenge measured 2 hrs post carrageenan challenge relative to control.
Assay [3] has as its system Rattus norvegicus. Kind of assay: Antiinflammatory activity in Wistar albino rat assessed as inhibition of carrageenan-induced paw edema at 40 mg/kg, po administered 1 hr prior to carrageenan challenge measured 4 hrs post carrageenan challenge relative to control.
The test system of a further assay is Escherichia coli. Kind of assay: Antibacterial activity against Escherichia coli ATCC 25922 after 2 days by microdilution broth method. To be noted: ATCC 25922, 48 h.
The next assay relates to Aspergillus niger. Description: Antifungal activity against Aspergillus niger ATCC 9029 after 2 days by microdilution broth method. Particulars: ATCC 9029, 48 h.
Another assay relates to Candida albicans. Description: Antifungal activity against Candida albicans ATCC 10231 after 2 days by microdilution broth method. Particulars: ATCC 10231, 48 h.
A further assay has as its system Staphylococcus aureus. Description: Antibacterial activity against Staphylococcus aureus ATCC 25923 after 2 days by microdilution broth method. Particulars: ATCC 25923, 48 h.

Converted amounts (≈) assume the structure as drawn. The source made the active and inactive calls. No cut-off for these calls is given here.

`COc1ccc(N2C(=O)CSC2c2sc(-c3ccc(Cl)cc3)nc2C)cc1` (configuration not stated): the results for the inhibition in vivo at 40 mg/kg in the assay with Rattus norvegicus [1], in the assay on Rattus norvegicus [2] and in the assay on Rattus norvegicus [3] were 54%, 80.7% and 59.1%, respectively. The MIC in the assay on Escherichia coli, against Aspergillus niger, in the assay on Candida albicans and in the assay with Staphylococcus aureus was 30 µM (≈ 12.5 µg/mL) each time.

On to `Cc1nc(-c2ccccc2)sc1C1SCC(=O)N1c1ccccc1` (configuration not stated), for which the inhibition in vivo at 40 mg/kg was 44.4% in the assay on Rattus norvegicus [1], 50.6% with Rattus norvegicus [2] and 63.7% in the assay with Rattus norvegicus [3]. For the same molecule, the MIC stood at 70.9 µM (≈ 25 µg/mL) in the assay with Escherichia coli, 142 µM (≈ 50 µg/mL) with Aspergillus niger, 142 µM (≈ 50 µg/mL) against Candida albicans and 70.9 µM (≈ 25 µg/mL) with Staphylococcus aureus.

Take `Cc1nc(-c2ccc(Cl)cc2)sc1C1SCC(=O)N1c1ccc(Cl)cc1` (configuration not stated): the inhibition in vivo at 40 mg/kg is 69.3% with Rattus norvegicus [1], 45.7% in the assay with Rattus norvegicus [2] and 43.1% with Rattus norvegicus [3]. The MIC stood at 29.7 µM (≈ 12.5 µg/mL) in the assay on Escherichia coli, 119 µM (≈ 50 µg/mL) with Aspergillus niger, 119 µM (≈ 50 µg/mL) with Candida albicans and 59.3 µM (≈ 25 µg/mL) against Staphylococcus aureus.

As for `COc1ccc(N2C(=O)CSC2c2sc(Cc3ccc(Cl)cc3)nc2C)cc1` (configuration not stated), the inhibition in vivo at 40 mg/kg in the assay on Rattus norvegicus [1] was found to be 20.9%; with Rattus norvegicus [2] it was 28.6%; in the assay on Rattus norvegicus [3], 55.9%. The MIC amounted to 58 µM (≈ 25 µg/mL) against Escherichia coli, 14.5 µM (≈ 6.25 µg/mL) in the assay with Aspergillus niger, 14.5 µM (≈ 6.25 µg/mL) in the assay with Candida albicans and 58 µM (≈ 25 µg/mL) with Staphylococcus aureus.

Take `Cc1nc(-c2ccc(Cl)cc2)sc1C1SCC(=O)N1c1ccc(F)c(Cl)c1` (configuration not stated): the figures for the inhibition in vivo at 40 mg/kg in the assay on Rattus norvegicus [1], in the assay with Rattus norvegicus [2] and in the assay with Rattus norvegicus [3] were 53.4%, 45.1% and 65.1%, respectively. For the same molecule, the MIC in the assay on Escherichia coli was 56.9 µM (≈ 25 µg/mL); in the assay on Aspergillus niger, 114 µM (≈ 50 µg/mL); against Candida albicans, 114 µM (≈ 50 µg/mL); with Staphylococcus aureus it was 56.9 µM (≈ 25 µg/mL).

Regarding `Cc1nc(Cc2ccc(Cl)cc2)sc1C1SCC(=O)N1c1ccc(F)c(Cl)c1` (configuration not stated), the inhibition in vivo at 40 mg/kg in the assay with Rattus norvegicus [1] stood at 40.7%; with Rattus norvegicus [2], 45.1%; in the assay with Rattus norvegicus [3] it was 68.9%. The MIC against Escherichia coli amounted to 55.1 µM (≈ 25 µg/mL); in the assay on Aspergillus niger, 27.6 µM (≈ 12.5 µg/mL); against Candida albicans, 27.6 µM (≈ 12.5 µg/mL); in the assay on Staphylococcus aureus, 55.1 µM (≈ 25 µg/mL).

As to `Cc1nc(Cc2ccc(Cl)cc2)sc1C1SCC(=O)N1c1ccccc1` (configuration not stated), the inhibition result with Rattus norvegicus [1], in the assay with Rattus norvegicus [2] and with Rattus norvegicus [3] was “inactive” throughout. The MIC in the assay on Escherichia coli stood at 67.8 µM (≈ 27.2 µg/mL); in the assay with Aspergillus niger, 33.9 µM (≈ 13.6 µg/mL); in the assay on Candida albicans, 33.9 µM (≈ 13.6 µg/mL); against Staphylococcus aureus, 67.8 µM (≈ 27.2 µg/mL).

Consider `Cc1nc(-c2ccccc2)sc1C1SCC(=O)N1c1ccc(F)c(Cl)c1` (configuration not stated), for which the inhibition in vivo at 40 mg/kg in the assay with Rattus norvegicus [1] was 55.9%; with Rattus norvegicus [2], 20.9%; in the assay on Rattus norvegicus [3], 28.6%. The MIC in the assay on Escherichia coli was 61.7 µM (≈ 25 µg/mL); with Aspergillus niger, 123 µM (≈ 50 µg/mL); in the assay on Candida albicans, 123 µM (≈ 50 µg/mL); against Staphylococcus aureus, 61.7 µM (≈ 25 µg/mL).

In the case of `COc1ccc2c(c1)c(CC(=O)O)c(C)n2C(=O)c1ccc(Cl)cc1` [INDOMETHACIN], the inhibition in vivo at 40 mg/kg in the assay with Rattus norvegicus [1] worked out at 70.2%; in the assay on Rattus norvegicus [2], 78.3%; in the assay on Rattus norvegicus [3], 87.3%.

Turning to `Cc1nc(Cc2ccc(Cl)cc2)sc1C1SCC(=O)N1c1ccc(Cl)cc1` (configuration not stated), the inhibition in vivo at 40 mg/kg with Rattus norvegicus [1] is 48.9%; in the assay on Rattus norvegicus [2] it was 40.1%; in the assay on Rattus norvegicus [3] it was 53.9%. Moreover, the MIC against Escherichia coli came to 57.4 µM (≈ 25 µg/mL); with Aspergillus niger, 28.7 µM (≈ 12.5 µg/mL); in the assay with Candida albicans, 28.7 µM (≈ 12.5 µg/mL); against Staphylococcus aureus, 28.7 µM (≈ 12.5 µg/mL).

Regarding `Cc1ccc(N2C(=O)CSC2c2sc(-c3ccc(Cl)cc3)nc2C)cc1` (configuration not stated), the inhibition in vivo at 40 mg/kg came out at 38.3% in the assay on Rattus norvegicus [1], 37.6% in the assay with Rattus norvegicus [2] and 63.9% in the assay on Rattus norvegicus [3]. The MIC came to 31.2 µM (≈ 12.5 µg/mL) in the assay with Escherichia coli, 31.2 µM (≈ 12.5 µg/mL) in the assay with Aspergillus niger, 15.6 µM (≈ 6.25 µg/mL) in the assay with Candida albicans and 31.2 µM (≈ 12.5 µg/mL) with Staphylococcus aureus.

As for `OC(Cn1cncn1)(Cn1cncn1)c1ccc(F)cc1F` [FLUCONAZOLE], the results for the MIC in the assay on Aspergillus niger and against Candida albicans were 5.09 µM (≈ 1.56 µg/mL) and 2.55 µM (≈ 0.781 µg/mL), respectively.

With `Cc1ccc(N2C(=O)CSC2c2sc(-c3ccccc3)nc2C)cc1` (configuration not stated), the inhibition in vivo at 40 mg/kg was found to be 58.1% with Rattus norvegicus [1], 60.1% with Rattus norvegicus [2] and 80.6% in the assay on Rattus norvegicus [3]. The minimum inhibitory concentration (MIC) against Escherichia coli is 60.4 µM (≈ 22.1 µg/mL); against Aspergillus niger, 30.2 µM (≈ 11.1 µg/mL); in the assay on Candida albicans, 30.2 µM (≈ 11.1 µg/mL); against Staphylococcus aureus it was 121 µM (≈ 44.3 µg/mL).

With `Cc1nc(-c2ccc(Cl)cc2)sc1C1SCC(=O)N1c1ccc(F)cc1` (configuration not stated), the inhibition in vivo at 40 mg/kg with Rattus norvegicus [1] came to 63.4%; in the assay with Rattus norvegicus [2], 63.9%; with Rattus norvegicus [3], 67.6%. In addition, the MIC against Escherichia coli was 15.4 µM (≈ 6.25 µg/mL); against Aspergillus niger it was 61.7 µM (≈ 25 µg/mL); in the assay on Candida albicans, 30.9 µM (≈ 12.5 µg/mL); in the assay on Staphylococcus aureus it was 30.9 µM (≈ 12.5 µg/mL).

For `COc1ccc(N2C(=O)CSC2c2sc(-c3ccccc3)nc2C)cc1` (configuration not stated), the inhibition in vivo at 40 mg/kg was 52.3% with Rattus norvegicus [1], 48.1% in the assay on Rattus norvegicus [2] and 67.1% with Rattus norvegicus [3]. The MIC against Escherichia coli was found to be 65.5 µM (≈ 25.1 µg/mL); against Aspergillus niger, 32.8 µM (≈ 12.5 µg/mL); against Candida albicans it was 32.8 µM (≈ 12.5 µg/mL); with Staphylococcus aureus it was 65.5 µM (≈ 25.1 µg/mL).

As for `Cc1nc(-c2ccc(Cl)cc2)sc1C1SCC(=O)N1c1ccccc1` (configuration not stated), the MIC with Escherichia coli came to 32.3 µM (≈ 12.5 µg/mL); in the assay with Aspergillus niger, 129 µM (≈ 50 µg/mL); in the assay with Candida albicans, 129 µM (≈ 50 µg/mL); in the assay with Staphylococcus aureus it was 32.3 µM (≈ 12.5 µg/mL).

Turning to `Cc1nc(Cc2ccc(Cl)cc2)sc1C1SCC(=O)N1c1ccc(F)cc1` (configuration not stated), the MIC in the assay with Escherichia coli came to 59.7 µM (≈ 25 µg/mL); against Aspergillus niger it was 14.9 µM (≈ 6.25 µg/mL); in the assay on Candida albicans, 14.9 µM (≈ 6.25 µg/mL); in the assay with Staphylococcus aureus it was 59.7 µM (≈ 25 µg/mL).

Turning to `O=C(O)c1cn(C2CC2)c2cc(N3CCNCC3)c(F)cc2c1=O` [CIPROFLOXACIN], the figures for the MIC against Escherichia coli and against Staphylococcus aureus were 2.35 µM (≈ 0.779 µg/mL) and 4.7 µM (≈ 1.56 µg/mL), respectively.

For `Cc1nc(-c2ccccc2)sc1C1SCC(=O)N1c1ccc(F)cc1` (configuration not stated), the inhibition in vivo at 40 mg/kg with Rattus norvegicus [1] stood at 63.9%; in the assay with Rattus norvegicus [2] it was 63.4%; with Rattus norvegicus [3], 85.3%. For the same molecule, the MIC against Escherichia coli worked out at 33.7 µM (≈ 12.5 µg/mL); in the assay on Aspergillus niger, 33.7 µM (≈ 12.5 µg/mL); against Candida albicans, 33.7 µM (≈ 12.5 µg/mL); in the assay on Staphylococcus aureus, 67.5 µM (≈ 25 µg/mL).

For `Cc1ccc(N2C(=O)CSC2c2sc(Cc3ccc(Cl)cc3)nc2C)cc1` (configuration not stated), the inhibition in vivo at 40 mg/kg in the assay on Rattus norvegicus [1] was 59.9%; in the assay on Rattus norvegicus [2], 61.4%; in the assay on Rattus norvegicus [3], 81.3%. Moreover, the MIC in the assay on Escherichia coli amounted to 60.2 µM (≈ 25 µg/mL); in the assay on Aspergillus niger it was 15.1 µM (≈ 6.25 µg/mL); with Candida albicans it was 30.1 µM (≈ 12.5 µg/mL); against Staphylococcus aureus, 60.2 µM (≈ 25 µg/mL).

As to `Cc1nc(-c2ccccc2)sc1C1SCC(=O)N1c1ccc(Cl)cc1` (configuration not stated), the inhibition in vivo at 40 mg/kg in the assay on Rattus norvegicus [1] was 54.8%; in the assay with Rattus norvegicus [2], 59.1%; in the assay with Rattus norvegicus [3] it was 80.8%. Also, the MIC is 64.6 µM (≈ 25 µg/mL) against Escherichia coli, 129 µM (≈ 50 µg/mL) against Aspergillus niger, 129 µM (≈ 50 µg/mL) in the assay with Candida albicans and 129 µM (≈ 50 µg/mL) with Staphylococcus aureus.
